Here are results for four compounds from BindingDB's records for doi:10.1021/jm00350a005 (1982).

In test [1] the target is 5-hydroxytryptamine receptor 1A/1B/1D/1E/1F/2A/2B/2C/3A/3B/3C/3D/3E/4/5A/6/7. The test can be described thus: Ability to displace [3H]5-HT binding to 5-hydroxytryptamine receptor using 1 uM LSD as masking ligand, activity is expressed as Kd.
Test [2] has the same target. Kind of test: Ability to displace [3H]5-HT binding from 5-hydroxytryptamine receptor site using 1 uM LSD as masking ligand.
The target is the same in test [3]. The test can be described thus: Ability to displace [3H]5-HT binding to 5-hydroxytryptamine receptor site using 1 uM LSD as masking ligand, […].
Test [4] has the same target. The test can be described thus: Ability to displace [3H]5-HT binding to 5-hydroxytryptamine receptor site using 1 uM LSD as masking ligand.

As a reminder, the Kd is a measure of binding affinity in units of concentration. The low end stands for tighter binding, the high end for weaker binding. The compound `CSc1ccc2[nH]cc(CCN(C)C)c2c1` had a Kd in test [1] of 0.043 µM.
As usually defined, the IC50 is the midpoint of a concentration-inhibition curve. Read a high IC50 as a need for much substance. In test [2], `CC(C)N(CCc1c[nH]c2cc3c(cc12)OCO3)C(C)C` returned a half-maximal inhibitory concentration (IC50) of 933 µM.
Compound `CN(C)CCc1c[nH]c2cc3c(cc12)OCO3` displayed a Kd in test [3] of 8.4 µM.
With `CSc1cccc2[nH]cc(CCN(C)C)c12`, the IC50 in test [4] worked out at 151 µM. The compound further gave a dissociation constant (Kd) in test [3] of 8.4 µM.
